Measurements reported in patent US8304445B2, “7-pyrazolyl tetracycline compounds and methods of use thereof” (Paratek Pharmaceuticals, Inc., priority 2001, dated 2012).
Values after ≈ are worked out from the molar mass of the structure shown.

Experiments:
Assay type in all cases: cell-based
Conditions in all cases: Mueller-Hinton broth, 37° C., 18 h
[1] = system: S. aureus GFX01596 Tet R; assay: MIC, broth microdilution, S. aureus GFX01596 Tet R
Procedure: (§1) Growth-inhibitory activity was determined on liquid medium by the antibiotic dilution technique using 96-well microtiter system plates containing two-fold dilutions of antibiotic-agent in 0.2 ml. of Mueller-Hinton broth. Plates were inoculated with each test organism to yield a final inoculum of 5×10^5 CFU/ml and were incubated aerobically at 37° C. for 18 h. The MIC was defined as the lowest concentration of antibacterial agent that inhibited development of visible growth in the microdilution wells.

[2] = system: S. aureus ATCC 29213; assay: MIC, broth microdilution, S. aureus ATCC 29213
Procedure: as §1

[3] = system: E. coli ML 308-225; assay: MIC, broth microdilution, E. coli ML 308-225
Procedure: as §1

[4] = system: M. catarrhalis ATCC 23246; assay: MIC, broth microdilution, M. catarrhalis ATCC 23246
Procedure: as §1

[5] = system: S. pneumoniae 157; assay: MIC, broth microdilution, S. pneumoniae 157
Procedure: as §1

[6] = system: S. pneumoniae GFX01778 Tet R; assay: MIC, broth microdilution, S. pneumoniae GFX01778 Tet R
Procedure: as §1

[7] = system: H. influenzae ATCC 49247; assay: MIC, broth microdilution, H. influenzae ATCC 49247
Procedure: as §1

Compound | MIC [1] [µg/mL] | MIC [2] [µg/mL] | MIC [3] [µg/mL] | MIC [4] [µg/mL] | MIC [5] [µg/mL] | MIC [6] [µg/mL] | MIC [7] [µg/mL]
CN(C)[C@@H]1C(O)=C(C(N)=O)C(=O)[C@@]2(O)C(O)=C3C(=O)c4c(O)ccc(-n5ccc(C=O)c5)c4C[C@H]3C[C@@H]12 [Example 3, [4S-(4aα,5aαα,12aα)]-4-(Dimethylamino)-7-(1H-pyrrol-1-yl-3-carboxaldehyde)-1,4,4a,5,5a,6,11,12a-octahydro-3,10,12,12a-tetrahydroxy-1,11-dioxo-2-naphthacenecarboxamide] | 0.25 (≈ 0.493 µM) | 0.015 (≈ 0.0296 µM) | 0.5 (≈ 0.985 µM) | 0.008 (≈ 0.0158 µM) | 0.015 (≈ 0.0296 µM) | 2 (≈ 3.94 µM) | 1 (≈ 1.97 µM)
CN(C)[C@@H]1C(O)=C(C(N)=O)C(=O)[C@@]2(O)C(O)=C3C(=O)c4c(O)ccc(-n5ccc(C=NO)c5)c4C[C@H]3C[C@@H]12 [Example 4, [4S-(4aα,5aαα,12aα)]-4-(Dimethylamino)-7-(3-((hydroxymino)-methyl)-1H-pyrrol-1-yl)-1,4,4a,5,5a,6,11,12a-octahydro-3, 10,12,12a-tetrahydroxy-1,11-dioxo-2-naphthacenecarboxamide] | 0.5 (≈ 0.957 µM) | 0.12 (≈ 0.23 µM) | 1 (≈ 1.91 µM) | 0.03 (≈ 0.0574 µM) | 0.03 (≈ 0.0574 µM) | 2 (≈ 3.83 µM) | 2 (≈ 3.83 µM)
CN(C)[C@@H]1C(O)=C(C(N)=O)C(=O)[C@@]2(O)C(O)=C3C(=O)c4c(O)ccc(-n5ccc(C#N)c5)c4C[C@H]3C[C@@H]12 [Example 5, [4S-(4aα,5aαα12aα)]-7-(3-Cyanopyrrol-1-yl)-4-(dimethylamino)-1,4,4a,5,5a,6,11,12a-octahydro-3,10,12,12a-tetrahydroxy-1,11-dioxo-2-naphthacenecarboxamide] | 0.5 (≈ 0.991 µM) | 0.015 (≈ 0.0297 µM) | 0.5 (≈ 0.991 µM) | 0.001 (≈ 0.00198 µM) | 0.015 (≈ 0.0297 µM) | 2 (≈ 3.96 µM) | 0.5 (≈ 0.991 µM)
CON=Cc1ccn(-c2ccc(O)c3c2C[C@H]2C[C@H]4[C@H](N(C)C)C(O)=C(C(N)=O)C(=O)[C@@]4(O)C(O)=C2C3=O)c1 [Example 6, [4S-(4aα,5aα12aα)]-4-(Dimethylamino)-7-(3-((methyloxymino)methyl)-1H-pyrrol-1-yl)-1,4,4a,5,5a,6,11,12a-octahydro-3,10,12,12a-tetrahydroxy-1,11-dioxo-2-naphthacenecarboxamide] | 0.5 (≈ 0.932 µM) | 0.12 (≈ 0.224 µM) | 2 (≈ 3.73 µM) | 0.004 (≈ 0.00746 µM) | 0.06 (≈ 0.112 µM) | 4 (≈ 7.46 µM) | 2 (≈ 3.73 µM)
